The supplement of paper PMC10307832

Tests used:
Assay in all cases: relative viability (nuclei count vs DMSO), 5 days (fraction); higher = more cells survive
[1] = compound: CC(C)C[C@@H](C(=O)N[C@H](C(=O)OC1CCCC1)c1ccccc1)[C@H](O)C(=O)NO [Tosedostat] + Cc1cc(Nc2cc(N3CCN(C)CC3)nc(Sc3ccc(NC(=O)C4CC4)cc3)n2)n[nH]1 [Tozasertib] (partner 0.1 µM)
Procedure, shortened: (§1)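 Relative viability equals treated-well nuclei counts divided by vehicle-well nuclei counts. Counts came from 4× images of lung cancer cell lines grown in 1536-well plates for 5 days after pin-tool dosing on the day after seeding. Dosing used one drug alone or a fixed anchor-drug dose plus five library-drug doses (not always all listed) in √10 steps, and values are medians of duplicate plates.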

[2] = compound: CC1=NN=C(O1)C2=NN=C(C=C2)N3CCC(CC3)OC4=C(C=CC(=C4)F)Cl + CC1(C)CCC(c2ccc(Cl)cc2)=C(CN2CCN(c3ccc(C(=O)NS(=O)(=O)c4ccc(N[C@H](CCN5CCOCC5)CSc5ccccc5)c(S(=O)(=O)C(F)(F)F)c4)cc3)CC2)C1 [Navitoclax] (partner 0.5 µM)
Procedure, shortened: as §1

[3] = compound: CC1=NN=C(O1)C2=NN=C(C=C2)N3CCC(CC3)OC4=C(C=CC(=C4)F)Cl + C[C@@H](Oc1cc(-c2cnn(C3CCNCC3)c2)cnc1N)c1c(Cl)ccc(F)c1Cl [Crizotinib] (partner 1 µM)
Procedure, shortened: as §1

[4] = compound: CC1=NN=C(O1)C2=NN=C(C=C2)N3CCC(CC3)OC4=C(C=CC(=C4)F)Cl + Nc1nc2[nH]cc(CCc3ccc(C(=O)N[C@@H](CCC(=O)O)C(=O)O)cc3)c2c(=O)[nH]1 [Pemetrexed] (partner 0.2 µM)
Procedure, shortened: as §1

Cell Line	relative viability ([1]; first compound 0.02 µM)	relative viability ([1]; first compound 0.06325 µM)	relative viability ([1]; first compound 0.2 µM)	relative viability ([1]; first compound 0.6325 µM)	relative viability ([1]; first compound 2 µM)	relative viability ([2]; first compound 0.253 µM)	relative viability ([2]; first compound 0.8 µM)	relative viability ([2]; first compound 2.53 µM)	relative viability ([2]; first compound 8 µM)	relative viability ([3]; first compound 0.253 µM)	relative viability ([3]; first compound 0.8 µM)	relative viability ([3]; first compound 2.53 µM)	relative viability ([3]; first compound 8 µM)	relative viability ([4]; first compound 0.253 µM)	relative viability ([4]; first compound 0.8 µM)	relative viability ([4]; first compound 2.53 µM)	relative viability ([4]; first compound 8 µM)
HCC-44	1.18	0.893	0.885	0.806	0.338	0.424	0.476	0.477	0.447	0.451	0.392	0.431	0.373	0.264	0.378	0.282	0.31
HCC-827	0.416	0.412	0.445	0.357	0.426	0.397	0.291	0.399	0.328	0.331	0.224	0.326	0.308	0.257	0.244	0.246	0.224
NCI-H1623	0.41	0.42	0.425	0.387	0.42	–	–	–	–	–	–	–	–	–	–	–	–
NCI-H441	0.911	0.567	0.561	0.542	0.423	0.536	0.654	0.544	0.472	0.615	0.428	0.541	0.36	0.295	0.265	0.223	0.258
NCI-H1734	0.24	0.242	0.278	0.229	0.208	0.826	0.682	0.843	0.754	0.652	0.688	0.62	0.626	0.433	0.364	0.434	0.438
HARA	0.111	0.129	0.0782	0.0748	0.07	0.451	0.392	0.393	0.352	0.747	0.327	0.271	0.294	0.245	0.26	0.239	0.231
NCI-H1703	–	–	–	–	–	0.9	0.987	0.783	0.71	0.728	0.661	0.764	0.611	–	–	–	–
NCI-H1395	0.757	0.748	0.768	0.678	0.675	1.17	0.859	1	1.13	–	–	–	–	0.69	0.668	0.831	0.812
NCI-H1355	0.63	0.55	0.584	0.533	0.442	–	–	0.947	0.763	–	–	0.985	0.959	0.715	0.562	0.949	0.874
LXF-289	0.198	0.167	0.169	0.122	0.0708	0.714	0.7	0.673	0.618	0.612	0.593	0.623	0.545	0.768	0.594	0.767	0.726
NCI-H1563	–	–	–	–	–	–	–	–	–	0.861	0.858	0.837	0.868	0.735	0.878	0.825	0.648
HCC-78	0.414	0.509	0.426	0.461	0.406	0.436	0.43	0.544	0.525	0.294	0.297	0.288	0.311	0.888	0.879	0.872	0.853
NCI-H1666	0.639	0.711	0.541	0.726	0.623	0.706	0.667	0.723	0.698	0.612	0.621	0.636	0.629	0.735	0.69	0.741	0.751
HCC-15	0.571	0.415	0.43	0.274	0.346	0.477	0.445	0.455	0.491	0.42	0.405	0.374	0.36	0.215	0.239	0.226	0.214
EKVX	0.401	0.511	0.392	0.358	0.311	0.451	0.368	0.429	0.423	0.369	0.313	0.311	0.393	0.269	0.263	0.343	0.348
NCI-H2347	0.519	0.509	0.504	0.435	0.41	0.643	0.533	0.62	0.532	0.734	0.522	0.646	0.607	0.422	0.406	0.442	0.39
LK-2	0.17	0.208	0.165	0.162	0.162	0.873	0.928	0.808	0.915	0.216	0.246	0.24	0.259	0.318	0.256	0.377	0.255
NCI-H1651	0.726	0.645	0.637	0.678	0.554	0.809	0.783	0.782	0.717	0.753	0.659	0.656	0.669	0.488	0.422	0.445	0.444
COR-L23	0.214	0.165	0.172	0.161	0.128	0.815	0.729	0.789	0.629	0.527	0.586	0.433	0.435	0.179	0.193	0.176	0.181
ABC-1	0.17	0.194	0.137	0.118	0.17	–	–	–	–	0.686	0.615	0.426	0.436	–	–	–	–
SW 900	0.573	0.482	0.421	0.427	0.314	–	–	–	–	–	–	–	–	–	0.444	0.486	0.449
SW 1573	0.183	0.193	0.205	0.219	0.157	1.03	0.84	0.851	0.922	0.777	0.827	0.795	0.664	0.819	0.881	0.828	0.534
NCI-H1648	0.518	0.493	0.402	0.576	0.433	–	–	–	–	–	–	–	–	0.593	0.625	0.647	0.685

Cell Line	relative viability ([1]; first compound 0.02 µM)	relative viability ([1]; first compound 0.06325 µM)	relative viability ([1]; first compound 0.2 µM)	relative viability ([1]; first compound 0.6325 µM)	relative viability ([1]; first compound 2 µM)	relative viability ([2]; first compound 0.253 µM)	relative viability ([2]; first compound 0.8 µM)	relative viability ([2]; first compound 2.53 µM)	relative viability ([2]; first compound 8 µM)	relative viability ([3]; first compound 0.253 µM)	relative viability ([3]; first compound 0.8 µM)	relative viability ([3]; first compound 2.53 µM)	relative viability ([3]; first compound 8 µM)	relative viability ([4]; first compound 0.253 µM)	relative viability ([4]; first compound 0.8 µM)	relative viability ([4]; first compound 2.53 µM)	relative viability ([4]; first compound 8 µM)
A549	–	–	–	–	–	0.778	0.652	0.599	0.587	0.461	0.383	0.316	0.319	–	–	–	–
A-427	0.217	0.196	0.185	0.162	0.152	0.86	–	0.771	0.631	0.826	–	0.779	0.671	1.03	0.792	0.922	0.947
NCI-H2009	0.821	0.765	0.697	0.647	0.607	0.667	0.671	0.614	0.54	0.565	0.529	0.547	0.465	0.605	0.547	0.587	0.517
LCLC-97TM1	0.216	0.203	0.184	0.165	0.172	0.623	–	0.67	0.447	0.262	–	0.442	0.327	0.184	–	0.199	0.184
NCI-H1792	–	–	–	–	–	0.4	0.409	0.409	0.482	0.414	0.447	0.378	0.451	0.735	0.648	0.785	0.6
LCLC-103H	0.508	0.512	0.545	0.407	0.276	–	–	–	–	0.819	0.746	0.723	0.746	0.435	0.418	0.403	0.409
LOU-NH91	0.686	0.699	0.665	0.574	0.917	–	0.577	0.697	0.705	–	0.654	0.703	0.749	–	0.386	0.394	0.424
BEN	0.535	0.523	0.429	0.326	0.252	0.0638	0.0498	0.058	0.141	0.709	0.796	0.913	0.86	0.736	0.84	0.806	0.741
NCI-H1755	0.665	0.578	0.477	0.386	0.319	0.615	0.682	0.676	0.655	0.578	0.576	0.619	0.512	0.424	0.426	0.418	0.365
LC-2-ad	0.472	0.454	0.403	0.297	0.281	0.318	0.242	0.307	0.218	0.334	0.314	0.336	0.326	0.267	0.27	0.282	0.239
NCI-H1975	0.955	0.749	0.916	0.575	0.471	–	0.82	0.838	0.882	–	0.918	0.782	0.777	0.217	0.272	0.271	0.25
ChaGo-K-1	0.241	0.227	0.269	0.199	0.176	0.678	0.624	0.632	0.622	0.76	0.669	0.721	0.694	0.245	0.265	0.248	0.266
Calu-6	–	–	–	–	–	0.667	0.673	0.651	0.612	0.485	0.469	0.483	0.465	–	–	–	–
NCI-H358	0.0914	0.1	0.0977	0.0822	0.0804	–	–	–	–	0.522	0.403	0.509	0.466	0.148	0.167	0.139	0.162
NCI-H2342	0.489	0.537	0.522	0.496	0.491	–	–	–	–	–	–	–	–	0.646	0.663	0.701	0.614
EBC-1	–	–	–	–	–	0.352	0.375	0.26	0.276	0.216	0.171	0.179	0.202	–	–	–	–
NCI-H522	0.561	0.566	0.533	0.509	0.45	–	–	–	–	–	–	–	–	1.02	0.947	1.14	0.959
IA-LM	–	–	–	–	–	0.131	0.137	0.127	0.12	0.415	0.266	0.288	0.34	–	–	–	–
NCI-H650	0.839	0.78	0.684	0.602	0.471	–	–	–	–	0.691	0.692	0.64	0.818	0.943	0.65	0.781	0.814
NCI-H661	0.354	0.353	0.374	0.395	0.342	–	–	–	–	0.609	0.661	0.711	0.747	0.736	0.695	0.676	0.652
NCI-H1793	0.289	0.386	0.295	0.31	0.289	0.45	0.397	0.371	0.282	–	–	–	–	0.843	0.835	0.977	0.79
NCI-H1299	–	–	–	–	–	0.895	0.932	0.894	0.835	0.785	0.711	0.756	0.689	–	–	–	–
NCI-H727	0.586	0.535	–	0.45	0.415	0.479	0.36	0.368	0.262	0.725	0.901	0.672	0.683	–	–	–	–
